Measurements from DBAASP.
Values after ≈ are worked out from the molar mass of the structure shown. Values joined by “and” are separate entries in the source; they are usually repeats but may differ in a detail not shown here. Equal entries are not always repeated. Each block holds one compound with its values, some of them ahead of it.

Columns and labels:
Experiment in all cases: ≥ marks a high value that may be exact or a test limit, other limits are often not marked, values filed in µg/mL are converted to µM
[1] = tested on: Candida glabrata ATCC 90030
[2] = tested on: Staphylococcus aureus ATCC 33591
[3] = tested on: Staphylococcus aureus ATCC 29213
[4] = tested on: Staphylococcus aureus S015
[5] = tested on: Candida krusei ATCC 6258
[6] = tested on: Staphylococcus epidermidis ATCC 12228
[7] = tested on: Escherichia coli ATCC 25922
[8] = tested on: Enterobacter cloacae ATCC 13047
[9] = tested on: Candida albicans ATCC 90028
[10] = tested on: Pseudomonas aeruginosa ATCC 27853
[11] = tested on: Enterococcus faecalis ATCC 29212
[12] = tested on: Enterococcus faecalis ATCC 4028
[13] = tested on: Escherichia coli
[14] = tested on: Candida albicans
[15] = tested on: Aspergillus nidulans
[16] = tested on: Staphylococcus aureus
[17] = tested on: Pseudomonas aeruginosa ATCC 10145
[18] = tested on: Enterococcus faecalis OG1X
[19] = tested on: Salmonella enterica subsp. enterica serovar Typhimurium ATCC BAA-215
[20] = tested on: Bacillus subtilis ATCC 11774
[21] = tested on: Escherichia coli ATCC 12014
[22] = tested on: Streptococcus gordonii
[23] = tested on: Staphylococcus aureus ATCC 6538
[24] = tested on: Porphyromonas gingivalis ATCC 33277
[25] = tested on: Enterococcus faecalis FA2-2
[26] = tested on: Staphylococcus aureus ATCC 25023
[27] = tested on: Vibrio cholerae non-O139
[28] = tested on: Salmonella enterica subsp. enterica serovar Typhi DMST 22842
[29] = tested on: Staphylococcus aureus ATCC 25923
[30] = tested on: Vibrio cholerae non-O1
[31] = tested on: Micrococcus luteus DSM 20030
[32] = tested on: Escherichia coli D31
[33] = tested on: Cronobacter sakazakii DPC 6440
[34] = tested on: Listeria monocytogenes LO28

Structure (SMILES): CC[C@H](C)[C@H](NC(=O)[C@H](CC(C)C)NC(=O)CNC(=O)CNC(=O)[C@@H](NC(=O)[C@H](CC(C)C)NC(=O)[C@H](CO)NC(=O)[C@@H]1CCCN1C(=O)[C@@H](NC(=O)[C@H](CC(C)C)NC(=O)[C@H](CO)NC(=O)[C@H](Cc1ccccc1)NC(=O)[C@@H](N)Cc1ccccc1)[C@@H](C)CC)C(C)C)C(=O)N[C@@H](CO)C(=O)N[C@@H](C)C(=O)N[C@@H](Cc1ccccc1)C(=O)N[C@@H](CCCCN)C(N)=O [FFSLIPSLVGGLISAFK]
- MIC [1]: ≥ 69.5 µM
- MIC [2]: 17.4 µM (≈ 31.2 µg/mL)
- MIC [3]: 8.68 µM and 9.37 µM
- MIC [4]: ≥ 139 µM
- MIC [5]: ≥ 69.5 µM
- MIC [6]: 9.38 µM and 9.37 µM
- MIC [7]: > 139 µM
- MIC [8]: ≥ 150 µM
- MIC [9]: ≥ 34.8 µM
- MIC [10]: > 150 µM
- MIC [11]: > 139 µM
- MIC [12]: ≥ 150 µM

Structure (SMILES): CC[C@H](C)[C@H](NC(=O)[C@H](CCCCN)NC(=O)[C@H](CCC(=O)O)NC(=O)[C@H](CCCCN)NC(=O)[C@H](CO)NC(=O)[C@H](CCCCN)NC(=O)[C@@H](N)CCCN=C(N)N)C(=O)NCC(=O)N[C@@H](CCCCN)C(=O)N[C@@H](CCC(=O)O)C(=O)N[C@@H](Cc1ccccc1)C(=O)N[C@@H](CCCCN)C(=O)N[C@@H](CCCN=C(N)N)C(=O)N[C@H](C(=O)N[C@H](C(=O)N[C@@H](CCC(N)=O)C(=O)N[C@@H](CCCN=C(N)N)C(=O)N[C@H](C(=O)N[C@@H](CCCCN)C(=O)N[C@@H](CC(=O)O)C(=O)N[C@@H](Cc1ccccc1)C(=O)O)[C@@H](C)CC)C(C)C)[C@@H](C)CC [RKSKEKIGKEFKRIVQRIKDF]
- MIC [17]: ≥ 38 µM
- MIC [18]: 19 µM (≈ 50 µg/mL)
- MIC [19]: 19 µM (≈ 50 µg/mL)
- MIC [20]: 0.038 µM (≈ 0.1 µg/mL)
- MIC [21]: 0.152 µM (≈ 0.4 µg/mL)
- MIC [22]: 2.37 µM (≈ 6.25 µg/mL)
- MIC [23]: 19 µM (≈ 50 µg/mL)
- MIC [24]: 4.75 µM (≈ 12.5 µg/mL)
- MIC [25]: 4.75 µM (≈ 12.5 µg/mL)

Structure (SMILES): CC(C)C[C@H](NC(=O)[C@H](CC(C)C)NC(=O)[C@H](CC(C)C)NC(=O)[C@H](CC(C)C)NC(=O)[C@H](CC(C)C)NC(=O)[C@H](CCCCN)NC(=O)[C@H](CC(C)C)NC(=O)[C@@H](N)CCCN=C(N)N)C(=O)N[C@@H](CCCN=C(N)N)C(=O)N[C@@H](Cc1c[nH]c2ccccc12)C(N)=O [RLKLLLLLRW]
- MIC [26]: 3.02 µM (≈ 4 µg/mL)

Structure (SMILES): NC(=O)[C@H](Cc1c[nH]c2ccccc12)NC(=O)[C@H](Cc1c[nH]c2ccccc12)NC(=O)[C@H](CCCN=C(N)N)NC(=O)[C@H](CCCN=C(N)N)NC(=O)[C@H](Cc1c[nH]c2ccccc12)NC(=O)[C@H](Cc1c[nH]c2ccccc12)NC(=O)[C@H](CCCN=C(N)N)NC(=O)[C@H](Cc1c[nH]c2ccccc12)NC(=O)[C@H](Cc1c[nH]c2ccccc12)NC(=O)[C@@H](N)CCCN=C(N)N [RWWRWWRRWW]
- MIC [27]: 13.1 µM (≈ 23 µg/mL)
- MIC [28]: ≥ 51.7 µM
- MIC [6]: > 51.7 µM
- MIC [7]: > 51.7 µM
- MIC [29]: > 51.7 µM
- MIC [30]: 13.1 µM (≈ 23 µg/mL)
- MIC [10]: 26.1 µM (≈ 46 µg/mL)

Second part, the compound after the results:

- MIC [13]: > 125 µM
- MIC [14]: 11 µM (≈ 17.7 µg/mL)
- MIC [15]: 21.9 µM (≈ 35.4 µg/mL)
- MIC [16]: > 125 µM
Structure (SMILES): CC[C@H](C)[C@H](NC(=O)[C@H](CO)NC(=O)[C@@H]1CCCN1C(=O)[C@H](CCCN=C(N)N)NC(=O)[C@H](Cc1c[nH]c2ccccc12)NC(=O)[C@H](Cc1c[nH]c2ccccc12)NC(=O)[C@H](Cc1ccc(O)cc1)NC(=O)[C@H](CCC(N)=O)NC(=O)[C@H](CCCCN)NC(=O)[C@H](CC(C)C)NC(=O)[C@@H]1CCCN1C(=O)[C@@H](N)Cc1cnc[nH]1)C(=O)O [HPLKQYWWRPSI]

- MIC [31]: ≥ 100 µM
- MIC [32]: ≥ 100 µM
Structure (SMILES): CC[C@H](C)[C@H](NC(=O)[C@H](Cc1c[nH]c2ccccc12)NC(=O)[C@@H](N)CO)C(=O)N[C@@H](CCCCN)C(=O)N[C@@H](CCCCN)C(=O)N[C@@H](CC(=O)O)C(=O)N[C@@H](CCCCN)C(=O)N[C@@H](Cc1ccccc1)C(=O)N1CCC[C@H]1C(=O)N[C@@H](CO)C(=O)N[C@@H](CO)C(=O)N[C@H](C(=O)NCC(=O)N1CCC[C@H]1C(=O)N[C@@H](Cc1ccc(O)cc1)C(=O)N[C@@H](CC(N)=O)C(=O)N1CCC[C@H]1C(=O)N[C@@H](CC(N)=O)C(=O)N1CCC[C@H]1C(=O)N1CCC[C@H]1C(=O)N1CCC[C@H]1C(=O)N1CCC[C@H]1C(=O)N[C@@H](CCCN=C(N)N)C(=O)N[C@@H](Cc1ccccc1)C(=O)O)[C@@H](C)O [SWIKKDKFPSSTGPYNPNPPPPRF]

- MIC [33]: ≥ 39.1 µM
- MIC [34]: ≥ 39.1 µM
Structure (SMILES): CC[C@H](C)[C@H](NC(=O)[C@@H](NC(=O)[C@H](CCCCN)NC(=O)[C@@H](NC(=O)[C@H](CCCCN)NC(=O)[C@@H]1CCCN1C(=O)[C@H](CCC(N)=O)NC(=O)[C@H](C)NC(=O)[C@@H](N)Cc1c[nH]c2ccccc12)[C@@H](C)O)C(C)C)C(=O)N1CCC[C@H]1C(=O)N[C@@H](Cc1ccc(O)cc1)C(=O)N[C@H](C(=O)N[C@@H](CCCN=C(N)N)C(=O)N[C@@H](Cc1ccc(O)cc1)C(=O)N[C@@H](CC(C)C)C(=O)O)C(C)C [WAQPKTKVIPYVRYL]
